Measured values as given in patent publication US9763987B2, “Cyclic di-AMP induction of type I interferon” (priority 2010, dated 2017).

Legend:
[1] = tested on: bone marrow derived macrophages (BMM); test: IFN-β bio-assay: samples delivered to BMM cytosol by digitonin, type I IFN read with ISRE-L929 luciferase reporter cells; assay type: cell-based, mouse; settings: FIG. 3d
Method: Mouse bone marrow from 6-8 week old female mice was differentiated to bone marrow derived macrophages (BMM) as described previously (S3). Interferon responsive ISRE-L929 cells were cultured in ISRE media (DMEM, 2 mM glutamine, 1 mM pyruvate, 10% heat inactivated FBS, and penicillin-streptomycin). Induction of type-I interferon was assessed using BMMs plated in 96-well flat bottom tissue culture treated plates (10^5 cells/well) a minimum of 12 hours prior to use in BMM media (DMEM, 2 mM glutamine, 1 mM pyruvate, 10% CSF from 3T3 cells, and 20% heat inactivated FBS). Samples (10 μL) of L. monocytogenes supernatants, HPLC fractions, and cyclic di-AMP standard (Biolog Life Sciences Institute, […]) were mixed with a 10× volume of digitonin permeabilization solution (50 mM HEPES pH 7.0, 100 mM KCl, 3 mM MgCl2, 0.1 mM DTT, 85 mM Sucrose, 0.2% BSA, 1 mM ATP, 0.1 mM GTP, ±10 μg/mL Digitonin) (S4). Media was aspirated from the cells and replaced with 50 μL each sample mixture. Cells were incubated for 30 minutes at 37° C. […] Finally, 40 μL of luciferase substrate solution (20 mM Tricine, 2.67 mM MgSO4.7H2O, 0.1 mM EDTA, 33.3 mM DTT, 530 μM ATP, 270 μM acetyl CoA lithium salt, 470 μM luciferin, 5 mM NaOH, 265 μM magnesium carbonate hydroxide) was added to each well and luminescence was measured using a VICTOR3 luminometer (PerkinElmer). • 8. […]

WT and mutant BMMs = test: IFN-β induction in various host strains (WT and knockout BMMs), ISRE L929 bioassay; assay type: cell-based, mouse; settings: 3 μM with digitonin, 6 hours; WT vs myd88-trif−/−, irf3−/−, mays−/− macrophages; parallel to L. monocytogenes (IRF3 and STING dependent, MyD88/Trif and MAVS independent); FIG. 9
Method: BMMs were differentiated as described previously (S3). For mays−/−macrophages, heterozygous mice were used as a control. WT and mutant BMMs were plated in 24-well plates ([…]) the evening prior to use. For infections, 2×10^6 bacteria from 30° C. overnight cultures were washed with PBS and added to each well containing 500 μL of BMM media. For c-di-AMP treatment, synthetic standard was dissolved in digitonin solution to a final concentration of 3 μM. Media was aspirated from cells and replaced with 200 μL of c-di-AMP/digitonin mix. From this point on infections and c-di-AMP samples were treated the same. At 30 minutes wells were aspirated and replaced with fresh BMM media. At 1 hour post infection gentamycin (50 μg/mL) was added. For LPS treatment, 100 ng of sonicated LPS stock solution (50 μg/mL) was added to appropriate wells containing 500 μL of BMM media. Supernatants from all wells were collected and analyzed by ISRE L929 bioassay for IFN-β activity at 6 hours. • 10. Supporting References • S1. D. A. Portnoy, P. S. Jacks, D. J. Hinrichs, Role of hemolysin for the intracellular growth of Listeria monocytogenes. J. Exp. Med. 167, 1459 (1988). • S2. L. Phan-Thanh, T. Gormon, A chemically defined minimal medium for the optimal culture of Listeria. Int. J. Food Microbiol. 35, 91 (1997). • S3. […]

host IFN pathway = settings: delivered to the host cytosol; reference 29; cited from earlier work

Row | SMILES | IFN-β induction in macrophages ([1]; commercially available c-di-AMP delivered to the cytosol of murine BMMs) | IFN-β inducing activity after treatment with snake venom phosphodiesterase (SVPD) ([1]; sample treated with SVPD) | host signaling pathway required for detection (type-I IFN) (WT and mutant BMMs) | cell permeability (cells) | induction of inflammation (cells; added to the outside of cells) | activation of host IFN pathway (host IFN pathway)
1 | Nc1ncnc2c1ncn2[C@@H]1O[C@@H]2COP(=O)(O)O[C@H]3[C@@H](O)[C@H](n4cnc5c(N)ncnc54)O[C@@H]3COP(=O)(O)O[C@H]2[C@H]1O [c-di-AMP, cyclic di-adenosine monophosphate] | dose-dependent response | abolished the activity | requires a parallel host-signaling pathway | not cell permeable | does not induce inflammation | 
2 | Nc1nc2c(ncn2[C@@H]2O[C@@H]3COP(=O)(O)O[C@H]4[C@@H](O)[C@H](n5cnc6c(=O)[nH]c(N)nc65)O[C@@H]4COP(=O)(O)O[C@H]3[C@H]2O)c(=O)[nH]1 [c-di-GMP] |  |  |  |  |  | specifically activates the host IFN pathway
